Results on 36 compounds are retold here after patent US4061757A, “Compounds having juvenile hormone activity” (A/S Cheminova, priority 1971, dated 1977).

One assay deals with Tenebrio molitor L. Description: Tenebrio test (topical application to pupae, morphological inhibition of adult characters). Type of assay: in vivo, Tenebrio molitor L (yellow mealworm). The following applies: for ID-50 morph.: Table I, topical, acetone solution, 0.5 to 2 hours old pupae (150 mg), 27° C, 70% RH; for ID 50 morph.: Table II, compounds of the formula I, Tenebrio. The procedure: (§1) The biological tests are examplified by tests on the yellow mealworm, Tenebrio molitor L, Galleria mellonella L, Culex pipiens L, Aedes aegypti L and Drosophila melanogaster L.
Tenebrio test: The material in question is applied topically to the abdomen of 0.5 to 2 hours old pupae of the said species, as a solution in acetone. The pupae are held at 27° C and 70% RH, ecdysis occuring 5 to 7 days later. The degree of inhibition of adult characters is referred to an arbitrary scale, where a morphologically perfect adult is given the character 0%, and a perfect second pupae 100%. In Table 1 is given the morphological inhibition dose 50% (ID 50 morph.) for some of the chemicals invented, in μg per standard pupa (150 mg). ID 50 morph. refers to specimens showing predominantly adult characters in the front part, pupal characters in the abdomen.
ID50 morph is as said above the dose causing development of individuals showing predominantly adult characters in the front part and pupal characters in the abdomen. It is known that ID50 -doses in general are 10 times greater than ED50 -doses.

The subject of a further assay is Culex pipiens L. Description: Culex test (mature larvae, loss of 50% of test animals). Type of assay: in vivo. As to conditions: Table I, read-out: IC-50 eclos. Here is the method:
The biological tests are examplified by tests on the yellow mealworm, Tenebrio molitor L, Galleria mellonella L, Culex pipiens L, Aedes aegypti L and Drosophila melanogaster L. Culex test: The compounds are tested on mature larvae. The concentration (IC-50 eclos.) is given in ppm.

The subject of assay [1] is Drosophila melanogaster L. Description: Drosophila test (compound in agar based food, pupae which fail in ecdysis). Type of assay: in vivo. The following applies: Table I, in artificial agar based food, pupae failing in ecdysis. Here is the method:
as §1
Drosophila test: One ml of acetone solution of the compound to be tested is mixed with an artificial agar based food mixture just before this solidifies. Ten less than one day old adult flies -- five of each sex -- are added, and all abnormalities observed for two generations. Juvenile hormone activity is especially noted in the pupae which fail in ecdysis. EC50 -eclos. is given in ppm.

The test system of a further assay is Aedes aegypti L. Description: Aedes test (same test as for Culex). Type of assay: in vivo. As to conditions: Table I, mature larvae, loss of 50% of test animals, read-out: IC-50 eclos. The procedure:
as §1
Culex test: The compounds are tested on mature larvae. The concentration (IC-50 eclos.) is given in ppm.
Aedes test: The same test as for Culex.

`CC(C)=CCC/C(C)=C/COc1ccc(C)nc1` [Compound 1, 3,7-dimethyl-1-(6'-methyl-3'-pyridyl-oxy)-2,6-octadiene]: in the assay with Tenebrio molitor L, the ID-50 morph. amounted to 0.02 μg/pupa and the “ID 50 morph.” value is 0,02 μg/150 mg pupa. Moreover, the IC50 for inhibition of adult emergence (eclosion) in the assay on Culex pipiens L came out at 0.5 µg/mL. For the same compound, the EC-50 eclos in assay [1] is given as more than 100 ppm. Moreover, the IC50 (inhibition of eclosion) in the assay on Aedes aegypti L is 0.5 µg/mL.
`C/C(=C\COc1ccc(C)nc1)CCC1OC1(C)C` (centres unmarked) [Compound 2, 6,7-epoxy-3,7-dimethyl-1-(6'-methyl-3'-pyridyloxy)-2-octene] had an ID-50 morph. in the assay with Tenebrio molitor L of 0.002 μg/pupa. Besides, the IC50 (inhibition of eclosion) in the assay with Aedes aegypti L came to 0.1 µg/mL.
In turn, `CCOC(C)(C)CCC/C(C)=C/COc1ccc(C)nc1` [Compound 3, 7-ethoxy-3,7-dimethyl-1-(6'-methyl-3'-pyridyloxy)-2-octene] registered an ID-50 morph. in the assay on Tenebrio molitor L of 0.001 μg/pupa. For the same compound, the IC50 for inhibition of adult emergence (eclosion) in the assay with Culex pipiens L is less than 10 µg/mL.
Compound `C/C(=C\COc1ccc(C)nc1)CCCC(C)(C)O` [Compound 4, 7-hydroxy-3,7-dimethyl-1-(6'-methyl-3'-pyridyloxy)-2-octene] displayed an ID-50 morph. with Tenebrio molitor L of 4.0 μg/pupa.
Regarding `CC(C)=CCC/C(C)=C/CNc1cccnc1` [Compound 5, N,3'-3,7-dimethyl-2,6-octadienyl-1-(3'-a-minopyridine)], in the assay on Tenebrio molitor L, the ID-50 morph. turned out to be 40.0 μg/pupa. The IC50 for inhibition of adult emergence (eclosion) in the assay on Culex pipiens L was found to be 10 µg/mL.
As for `CC(C)=CCCC(C)=CCOc1cccnc1` [Compound 6, 3,7-Dimethyl-1-(3'-pyridyloxy)-2,6-octadiene], the ID-50 morph. in the assay with Tenebrio molitor L was determined as 3.0 μg/pupa.
In the assay with Tenebrio molitor L, `CCc1ccc(OCC=C(C)CCC=C(C)C)cn1` [Compound 7, 3,7-Dimethyl-1-(6'-ethyl-3'-pyridyloxy)-2,6-octadiene] showed an ID-50 morph. of 0.005 μg/pupa. In addition, the IC50 for inhibition of adult emergence (eclosion) with Culex pipiens L amounted to 0.05 µg/mL. The same compound had an EC-50 eclos in assay [1] of more than 100 ppm.
`CC(C)=CCCC(C)=CCOc1ccc(C(C)C)nc1` [Compound 8, 3,7-Dimethyl-1-(6'-isopropyl-3'-pyridyloxy)-2,6-octadiene] gave an ID-50 morph. with Tenebrio molitor L of 0.004 μg/pupa.
For the compound `COc1ccc(OCC=C(C)CCC=C(C)C)cn1` [Compound 9, 3,7-Dimethyl-1-(6'-methoxy-3'-pyridyloxy)-2,6-acetadiene], in the assay with Tenebrio molitor L, the ID-50 morph. was 0.02 μg/pupa and the “ID 50 morph.” value is listed as 0,02 μg/150 mg pupa.
In the assay on Tenebrio molitor L, `CCC(C)=CCCC(=CCOc1ccc(C)nc1)CC` [Compound 10, 3-Ethyl-7-methyl-1l-(6'-methyl-3'-pyridyloxy)-2,6-nonadiene] displayed an ID-50 morph. of 0.002 μg/pupa.
The same measure, in the same setting: next, `CCC(C)=CCCC(=CCOc1ccc(CC)nc1)CC` [Compound 11, 3-EThyl-7-methyl-1-(6'-ethyl-3'-pyridyloxy)-2,6-nonadiene]: 0.001 μg/pupa; `CC(=CCOc1cccnc1)CCC1OC1(C)C` (centres unmarked) [Compound 12, 6,7-Epoxy-3,7-dimethyl-1l-(3'-pyridyloxy)-2-ocetene]: 0.2 μg/pupa.
In the case of `CCc1ccc(OCC=C(C)CCC2OC2(C)C)cn1` (centres unmarked) [Compound 13, 6,7-Epoxy-3,7-dimethyl-1l-(6'-ethyl-3'-pyridyloxy)-2l-octene], in the assay with Tenebrio molitor L, the ID-50 morph. is 0.0001 μg/pupa. For the same compound, the IC50 for inhibition of adult emergence (eclosion) in the assay with Culex pipiens L came out at 0.005 µg/mL. This compound showed an EC-50 eclos in assay [1] of more than 100 ppm. For the same compound, in the assay with Aedes aegypti L, the IC50 (inhibition of eclosion) turned out to be 0.1 µg/mL.
As to `CCC(=CCOc1ccc(C)nc1)CCC1OC1(C)CC` (centres unmarked) [Compound 14, 6,7-Epoxu-3-ethyl-7-methyl-1-(6'-methyl-3'-pyridyloxy)-2-nonene], the ID-50 morph. with Tenebrio molitor L is on record as 0.002 μg/pupa.
The same measure, in the same setting: with `CCC(=CCOc1ccc(CC)nc1)CCC1OC1(C)CC` (centres unmarked) [Compound 15, 6,7 Epoxy-3-ethyl-7-methyl-1-(6'-ethyl-3'-pyridyloxy)-2l-nonene] the figure was 0.0001 μg/pupa.
`CCOC(C)(C)CCCC(C)=CCOc1cccnc1` [Compound 16, 7-Ethoxy-3,7-dimethyl-1-(3'-pyridyloxy)-2-octene] returned an ID-50 morph. in the assay on Tenebrio molitor L of 0.009 μg/pupa.
On the same count and under the same terms, next, `COc1ccc(NCC=C(C)CCC=C(C)C)cn1` [Compound 17, N, 3'-3,7-Dimethyl-2,6-octadienlyl-(6'methoxy-3'-aminopyridin)]: 0.4 μg/pupa; `CCC(C)=CCCC(=CCOc1cccnc1)CC` [Compound 18, 3-Ethyl-7-methyl-1-(3'-pyridyloxy)-2,6-nonadiene]: 0.2 μg/pupa.
Still for that read-out and setting: next, `CCC(=CCOc1cccnc1)CCC1OC1(C)CC` (centres unmarked) [Compound 19, 6,7-Epoxy-3-ethyl-7-methyl-1-(3'-pyridyloxy)-2-nonene]: 0.02 μg/pupa; `COC(C)(C)CCCC(C)=CCOc1cccnc1` [Compound 20, 7-Methoxy-3,7-dimethyl-1l-(3'-pyridyloxy)-2-ocetene]: 1.0 μg/pupa.
With `COC(C)(C)CCCC(C)=CCOc1ccc(C)nc1` [Compound 21, 7-Metoxy-3,7-dimethyl-1-(6'-methyl-3'-pyridyloxy)-2-octene], the ID-50 morph. in the assay on Tenebrio molitor L came out at 1.0 μg/pupa. Moreover, the IC50 for inhibition of adult emergence (eclosion) in the assay with Culex pipiens L was less than 10 µg/mL. Moreover, the IC50 (inhibition of eclosion) in the assay with Aedes aegypti L came to 1 µg/mL.
In turn, `CCOC(C)(CC)CCCC(=CCOc1cccnc1)CC` (centres unmarked) [Compound 22, 7-Ethoxy-3-ethyl-7-methyl-1-(3'-pyridyloxy)-2-nonene] showed an ID-50 morph. in the assay with Tenebrio molitor L of 0.01 μg/pupa.
`CCOC(C)(CC)CCCC(=CCOc1ccc(C)nc1)CC` (centres unmarked) [Compound 23, 7-Ethoxy-3-ethyl-7-methyl-1l-(6'-methyl-3'-pyridyloxy)-2-nonene] gave an ID-50 morph. in the assay with Tenebrio molitor L of 0.001 μg/pupa. Moreover, the IC50 for inhibition of adult emergence (eclosion) with Culex pipiens L worked out at 0.5 µg/mL.
In turn, `CC(C)=CCCC(C)=CCOc1ccc(C)nc1[N+](=O)[O-]` [Compound 24, 3,7-Dimethyl-1l-(2'-nitro-6'-methyl-3'-pyridyloxy)-2,6-octadiene] had an ID-50 morph. with Tenebrio molitor L of 75. μg/pupa. Besides, in the assay with Culex pipiens L, the IC50 for inhibition of adult emergence (eclosion) is more than 10 µg/mL.
In turn, `CC(C)=CCCC(C)=CCOc1cccnc1CO` [Compound 25, 3,7-Dimethyl-1-(2'-hydroxymethyl-3'-pyridyloxy)-2,6-octadiene] yielded an ID-50 morph. with Tenebrio molitor L of 10. μg/pupa.
Same read-out and setting: with `CC(C)=CCCC(C)=CCOc1cccnc1C` [Compound 26, 3,7 Dimethyl-1-(2'-methyl-3'-pyridyloxy)-2,6-octadiene] the figure was 10. μg/pupa.
In the assay on Tenebrio molitor L, `CCOC(C)(C)CCCC(C)=CCOc1ccc(CC)nc1` [Compound 27, 7-Ethoxy-3,7-dimethyl-1-(6'-ethyl-3'-pyridyloxy)-2-octene] registered an ID-50 morph. of 0.0001 μg/pupa. For the same compound, the IC50 for inhibition of adult emergence (eclosion) with Culex pipiens L is less than 1 µg/mL. The EC-50 eclos in assay [1] is reported as more than 100 ppm.
In the assay with Tenebrio molitor L, `CCc1ccc(OCC=C(C)CCCC(C)(C)OC)cn1` [Compound 28, 7-Methoxy-3,7-dimethyl-1-(6'-ethyl-3'-pyridyloxy)-2-octene] had an ID-50 morph. of 0.001 μg/pupa.
In turn, `CCC(C)=CCCC(C)=CCOc1ccc(CC)nc1` [Compound 29, 3,7-Dimethyl-1-(6'-ethyl-3'-pyridyloxy)-2,6-nonadiene] had an ID-50 morph. in the assay on Tenebrio molitor L of 0.02 μg/pupa. The same compound yielded an EC-50 eclos in assay [1] of more than 100 ppm.
`CC(C)=CCCC(C)=CCOc1ccc(C)nc1CO` [Compound 31, 3,7-Dimethyl-1-(2'-hydroxymethyl-6'-methyl-3'pyridyloxy)-2,6-octadiene]: in the assay with Tenebrio molitor L, the ID-50 morph. came out at 10 μg/pupa. Besides, the IC50 for inhibition of adult emergence (eclosion) with Culex pipiens L was more than 10 µg/mL.
In the same order, the values of `CC(C)=CCCC(C)CCOc1cccnc1` (centres unmarked) [Compound 32, 3,7-Dimethyl-1-(3'-pyridyloxy)-6-octene] are 5. μg/pupa and 0.2 µg/mL.
In the same order, the values of `CC(C)=CCCC(C)CCOc1ccc(C)nc1` (centres unmarked) [Compound 34, 3,7-dimethyl-1-(6'-methyl-3'-pyridyloxy)-6-octene] are 0.4 μg/pupa and 0.5 µg/mL.
Turning to `Cc1ccc(OCCC(C)CCC2OC2(C)C)cn1` (centres unmarked) [Compound 35, 6,7-epoxy-3,7-dimethyl-1-(6'-methyl-3'pyridyloxy)-octane], the ID-50 morph. in the assay with Tenebrio molitor L is reported as 0.05 μg/pupa.
For the compound `CCOC(C)(C)CCCC(C)CCOc1ccc(C)nc1` (centres unmarked) [Compound 36, 7-Ethoxy-3,7-dimethyl-1-(6'-methyl-3'-pyridyloxy)-octane], the ID-50 morph. in the assay with Tenebrio molitor L was 0.05 μg/pupa. This compound displayed an EC-50 eclos in assay [1] of more than 100 ppm.
In the same order, the values of `CCc1ccc(OCCC(C)CCC=C(C)C)cn1` (centres unmarked) [Compound 37, 3,7-dimethyl-1-(6'-ethyl-3'-pyridyloxy)-6-octene] are 0.2 μg/pupa and more than 100 ppm.
In the same order, the values of `CCc1ccc(OCCC(C)CCCC(C)(C)OC)cn1` (centres unmarked) [Compound 40, 7-Methoxy-3,7-dimethyl-1l-(6'-ethyl-3'-pyridyloxy)-octane] are 0.02 μg/pupa and more than 100 ppm.
